Assay results reported in patent US20210196720A1 (UROVANT SCIENCES GMBH, priority 2018, published 2021).
Where two headings read alike, the source gives them in different places.

Assay: Multiple rising dose Phase 1 PK, healthy subjects, day 14 (young males unless stated)
Format: in vivo, human
Conditions: for CL renal: urine, read-out: renal clearance CLR at steady state
Excerpt: The steady state AUC geometric mean accumulation ratios were ˜2 in young male subjects and ˜2.8 in elderly subjects (male and female).
Although exposures were similar in middle-aged males when compared to young males, plasma concentrations were higher in elderly compared to middle-aged and young subjects. […] Furthermore, the steady state AUC geometric mean accumulation ratios were ˜2 in young males and ˜2.8 in the elderly.

What does the source list for `O=C(Nc1ccc(C[C@@H]2CC[C@H]([C@H](O)c3ccccc3)N2)cc1)[C@@H]1CCc2nccc(=O)n21` [Vibegron, (6S)-N-[4-[[(2S,5R)-5-[(R)-hydroxy(phenyl)methyl]pyrrolidin-2-yl]methyl]phenyl]-4-oxo-7,8-dihydro-6H-pyrrolo[1,2-a]pyrimidine-6-carboxamide]?
Ctrough (25 mg QD): 0.00507 ± 0.000711 µg/mL; Ctrough (50 mg QD): 0.0152 ± 0.00507 µg/mL; Ctrough (50 mg QD, Japanese): 0.0165 ± 0.00605 µg/mL; Ctrough (100 mg QD): 0.0319 ± 0.0115 µg/mL; steady state Cmax, elderly vs young males (100 mg QD): ~1.3 fold; Ctrough (100 mg QD, elderly male and female): 0.0542 ± 0.0153 µg/mL; fe0-24 hr, ss (100 mg, elderly): ~17%; Cmax (150 mg QD, middle-aged female, fasted): 0.346 ± 0.139 µg/mL; fe0-24 hr, ss (100 and 150 mg, young males): ~14%; steady state exposure (AUC0-24) higher, elderly Japanese vs non-Japanese (Day 14): 35%; AUC(0-t) (both sexes, human, plasma, oral, 100 mg, 100 mg QD, elderly Japanese, read-out: AUC0-24): 2.92 ± 0.693 µg·h/mL; half-life (both sexes, human, plasma, oral, 100 mg, 100 mg QD, elderly Japanese, read-out: t1/2 (converted)): 75.1 ± 3.9 h; AUC(0-t) (both sexes, human, plasma, oral, 100 mg, 100 mg QD, elderly male and female, read-out: AUC0-24): 2.23 ± 0.671 µg·h/mL; Cmax (both sexes, human, plasma, oral, 100 mg, 100 mg QD, elderly male and female, read-out: Cmax): 0.224 ± 0.092 µg/mL; half-life (both sexes, human, plasma, oral, 100 mg, 100 mg QD, elderly male and female, read-out: t1/2 (converted)): 88.4 ± 10.7 h; CL renal (both sexes, human, oral, 100 mg, elderly male and female): 127 mL/min; Cmax higher than healthy young males (elderly and females): 50-70%; AUC(0-t) (female, human, plasma, oral, 100 mg, elderly females, read-out: steady state AUC0-24hr): 2.62 µg·h/mL; Cmax (female, human, plasma, oral, 100 mg, elderly females, read-out: steady state Cmax): 0.278 µg/mL; AUC(0-t) (female, human, plasma, oral, 150 mg, 150 mg QD, middle-aged female, fasted, read-out: AUC0-24): 3.18 ± 0.925 µg·h/mL; Cmax (female, human, plasma, oral, 150 mg, 150 mg QD, middle-aged female, fasted, read-out: Cmax): 0.246 ± 0.139 µg/mL; half-life (female, human, plasma, oral, 150 mg, 150 mg QD, middle-aged female, read-out: t1/2 (converted)): 83.1 ± 17.2 h; Cmax higher, elderly Japanese vs non-Japanese (human, in vivo): 82%; steady state AUC, middle-aged females vs middle-aged males (human, in vivo): ~1.5 fold; steady state exposure higher, Japanese vs non-Japanese young males (human, in vivo): ~30%; half-life (human, plasma, oral, young and elderly subjects, read-out: terminal t1/2): 59 to 94 h; AUC(0-t) (male, human, plasma, oral, 25 mg, 25 mg QD, read-out: AUC0-24): 0.164 µg·h/mL; Cmax (male, human, plasma, oral, 25 mg, 25 mg QD, read-out: Cmax): 0.0156 ± 0.00693 µg/mL; half-life (male, human, plasma, oral, 25 mg, 25 mg QD, read-out: t1/2 (converted)): 94 ± 9.6 h; AUC(0-t) (male, human, plasma, oral, 50 mg, 50 mg QD, Japanese, read-out: AUC0-24): 0.613 ± 0.296 µg·h/mL; Cmax (male, human, plasma, oral, 50 mg, 50 mg QD, Japanese, read-out: Cmax): 0.0569 ± 0.0342 µg/mL; half-life (male, human, plasma, oral, 50 mg, 50 mg QD, Japanese, read-out: t1/2 (converted)): 69.4 ± 6.6 h; AUC(0-t) (male, human, plasma, oral, 50 mg, 50 mg QD, read-out: AUC0-24): 0.507 ± 0.176 µg·h/mL; Cmax (male, human, plasma, oral, 50 mg, 50 mg QD, read-out: Cmax): 0.0415 ± 0.0123 µg/mL; half-life (male, human, plasma, oral, 50 mg, 50 mg QD, read-out: t1/2 (converted)): 77.2 ± 8.9 h; AUC(0-t) (male, human, plasma, oral, 100 mg, 100 mg QD, Japanese, read-out: AUC0-24): 1.71 ± 0.542 µg·h/mL; Cmax (male, human, plasma, oral, 100 mg, 100 mg QD, Japanese, read-out: Cmax): 0.18 ± 0.111 µg/mL; half-life (male, human, plasma, oral, 100 mg, 100 mg QD, Japanese, read-out: t1/2 (converted)): 56.8 ± 19.2 h; AUC(0-t) (male, human, plasma, oral, 100 mg, 100 mg QD, read-out: AUC0-24): 1.28 ± 0.529 µg·h/mL; Cmax (male, human, plasma, oral, 100 mg, 100 mg QD, read-out: Cmax): 0.169 ± 0.0809 µg/mL; half-life (male, human, plasma, oral, 100 mg, 100 mg QD, read-out: t1/2 (converted)): 79.7 ± 11.5 h; half-life (male, human, plasma, oral, 150 mg, 150 mg QD, middle-aged male, after 28 days, read-out: t1/2 (converted)): 72.7 h; AUC(0-t) (male, human, plasma, oral, 150 mg, 150 mg QD, middle-aged male, read-out: AUC0-24): 2.17 ± 0.452 µg·h/mL; Cmax (male, human, plasma, oral, 150 mg, 150 mg QD, middle-aged male, read-out: Cmax): 0.293 ± 0.0671 µg/mL; AUC(0-t) (male, human, plasma, oral, 150 mg, 150 mg QD, read-out: AUC0-24): 2.29 ± 1.14 µg·h/mL; Cmax (male, human, plasma, oral, 150 mg, 150 mg QD, read-out: Cmax): 0.305 ± 0.215 µg/mL; half-life (male, human, plasma, oral, 150 mg, 150 mg QD, read-out: t1/2 (converted)): 79.2 ± 9.2 h; AUC(0-t) (male, human, plasma, oral, 200 mg, 200 mg QD, Japanese, read-out: AUC0-24): 4.37 ± 0.618 µg·h/mL; Cmax (male, human, plasma, oral, 200 mg, 200 mg QD, Japanese, read-out: Cmax): 0.631 ± 0.154 µg/mL; half-life (male, human, plasma, oral, 200 mg, 200 mg QD, Japanese, read-out: t1/2 (converted)): 59.5 ± 1.9 h; AUC(0-t) (male, human, plasma, oral, 200 mg, 200 mg QD, read-out: AUC0-24): 3.2 ± 1.12 µg·h/mL; Cmax (male, human, plasma, oral, 200 mg, 200 mg QD, read-out: Cmax): 0.313 ± 0.168 µg/mL; half-life (male, human, plasma, oral, 200 mg, 200 mg QD, read-out: t1/2 (converted)): 64.7 ± 6.5 h; AUC(0-t) (male, human, plasma, oral, 300 mg, 300 mg QD, read-out: AUC0-24): 6.98 ± 1.04 µg·h/mL; Cmax (male, human, plasma, oral, 300 mg, 300 mg QD, read-out: Cmax): 0.733 ± 0.164 µg/mL; half-life (male, human, plasma, oral, 300 mg, 300 mg QD, read-out: t1/2 (converted)): 61.7 ± 7.3 h; AUC(0-t) (male, human, plasma, oral, 400 mg, 400 mg QD, read-out: AUC0-24): 10.5 ± 2.14 µg·h/mL; Cmax (male, human, plasma, oral, 400 mg, 400 mg QD, read-out: Cmax): 1.4 ± 0.257 µg/mL; half-life (male, human, plasma, oral, 400 mg, 400 mg QD, read-out: t1/2 (converted)): 58.9 ± 5.9 h; CL renal (male, human, oral, young males, all dose levels): 150 to 187 mL/min; time to steady state (once daily dosing): ≤ 7 days; AUC higher in females than males (regardless of age): 50%
